Experimental data as given in patent publication US9063142B1, “Method of predicting sensitivity to prostate cancer therapy” (University of Florida, priority 2004, dated 2015).

Assays:
Format in all cases: cell-based, human
[1] = system: LNCaP cells; assay: PARP cleavage by Western blotting; conditions: 30 micro-M pifithrin-alpha 24 hr, then 25 micro-M roscovitine 16 hr, FIG. 5A
Method: (§2) Cells were rinsed with PBS and lysed in a buffer containing 50 mM Hepes, pH 7.5, 150 mM NaCl, 1 mM EDTA, 1 mM EGTA, 10% glycerol, 0.5% NP-40, 1 mM dithiothreitol, 0.1 mM phenylmethylsulfonyl fluoride, 2.5 micro-g/ml leupeptin, 0.5 mM NaF, and 0.1 mM Na3VO4. After a 30 min incubation, insoluble material was removed by centrifugation. Cell extracts normalized for amount protein were resolved by SDS-PAGE and transferred to nitrocellulose membranes. Blots were blocked in PBS containing 0.05% Tween and 5% instant milk and incubated with antibody in PBS containing 0.05% Tween for 2 hr at room temperature. Proteins recognized by the antibody were detected by enhanced chemiluminescence using a horseradish peroxidase-coupled secondary antibody as specified by the manufacturer (Pierce).

[2] = system: p53; assay: p53 abundance in LNCaP cells, Western blotting; conditions: 30 micro-M pifithrin-alpha 24 hr, then 25 micro-M roscovitine 16 hr, FIG. 5A
Method: as §2

[3] = system: cytochrome c; assay: Cytochrome c in S100 cytosolic extracts of LNCaP cells, Western blotting; conditions: 25 micro-M, 20 hr, FIG. 3B
Method: Cells were washed in ice-cold PBS, resuspended in an isotonic mitochondrial buffer (210 mM mannitol, 70 mM sucrose, 1 mM EDTA, 10 mM Hepes, pH 7.5, and a protease inhibitor cocktail (Sigma)), and homogenized in a Dounce homogenizer. The heavy membrane fraction was removed by two successive centrifugations, the first at 1000 H g for 10 min and the second at 10,000 H g for 10 min. To obtain the […], the supernatant was centrifuged at 100,000 H g for 90 min.

[4] = system: LNCaP-Rf cells; assay: Keratin 18 cleavage, M30 immunostaining; conditions: 25 micro-M, 20 hr, FIG. 2B
Method: After incubation, cells were fixed in ice-cold methanol at […]. for 30 min and incubated with FITC-conjugated M30 antibody for 60 min at room temperature. Cells were mounted with Vectashield containing DAPI.

[5] = system: PC3 cells; assay: DNA fragmentation, Cell Death Detection ELISA; conditions: 20 hr, FIG. 5B
Method: (§1) DNA fragmentation was determined using a photometric enzyme-linked immunoassay (Cell Death Detection ELISA kit, Roche) as specified by the manufacturer. […] Cell lysates were incubated with biotin-conjugated anti-histone antibody and peroxidase-conjugated anti-DNA antibody on streptavidin-coated microtiter plates for 2 hr at room temperature. After incubation with ATBS substrate for development of color, absorbance was read on a spectrophotometer at 405 nm against ABTS solution as the blank. For background determination, lysis buffer was used instead of cell lysate.

[6] = system: LNCaP cells; assay: DNA fragmentation, Cell Death Detection ELISA; conditions: co-treated with 25 micro-M roscovitine, 20 hr, FIG. 3A
Method: as §1

Cc1ccc(C(=O)Cn2c3c(sc2=N)CCCC3)cc1 [pifithrin-α]
PARP cleavage in roscovitine-treated cells [1]: substantially reduced | p53 abundance in cells co-treated with roscovitine [2]: did not increase

CC[C@H](CO)Nc1nc(NCc2ccccc2)c2ncn(C(C)C)c2n1 [roscovitine, 6-benzylamino-2-[(R)-1-ethyl-2-hydroxye-thylamino]-9-isopropylpurine]
cytochrome c in the cytosol [3]: present | keratin 18 cleavage [4]: keratin 18 cleavage | increase in amounts of fragmented DNA ([5]; 25 μM): 8 fold | increase in amounts of fragmented DNA ([5]; 50 μM): 3 fold

z-DEVD-fmk
roscovitine-induced apoptosis (DNA fragmentation) in presence of caspase inhibitor [6]: did not induce apoptosis

z-LEHD-fmk
roscovitine-induced apoptosis (DNA fragmentation) in presence of caspase inhibitor [6]: did not induce apoptosis
